Experimental data as given in the NIST ThermoML archive (doi:10.1021/je9003178).
± gives the expanded uncertainty stated by the source.

Assay: activity coefficient (dimensionless); of the first substance listed, at infinite dilution; xn = mol fraction of the nth substance listed
Conditions: Liquid, Chromatography, x1 = 0

SMILES | activity coefficient (322.65 K) | activity coefficient (343.85 K) | activity coefficient (352.65 K) | activity coefficient (332.85 K) | activity coefficient (343.15 K)
Cc1ccccc1C [1,2-dimethylbenzene] + CCCCCC[N+](C)(C)C.O=S(=O)([N-]S(=O)(=O)C(F)(F)F)C(F)(F)F | 1.66 ± 0.068 | 1.69 ± 0.07 | 1.76 ± 0.075 |  | 
Cc1ccccc1C [1,2-dimethylbenzene] + CCn1cc[n+](C)c1.N#CN=C=[N-] | 5.86 ± 0.27 |  |  | 5.8 ± 0.27 | 5.75 ± 0.26
Cc1cccc(C)c1 [1,3-dimethylbenzene] + CCCCCC[N+](C)(C)C.O=S(=O)([N-]S(=O)(=O)C(F)(F)F)C(F)(F)F | 1.8 ± 0.077 | 1.82 ± 0.078 | 1.89 ± 0.083 |  | 
Cc1cccc(C)c1 [1,3-dimethylbenzene] + CCn1cc[n+](C)c1.N#CN=C=[N-] | 7.4 ± 0.34 |  |  | 8.39 ± 0.38 | 7.27 ± 0.33
Cc1ccc(C)cc1 [1,4-dimethylbenzene] + CCCCCC[N+](C)(C)C.O=S(=O)([N-]S(=O)(=O)C(F)(F)F)C(F)(F)F | 1.82 ± 0.079 | 1.82 ± 0.079 | 1.86 ± 0.081 |  | 
Cc1ccc(C)cc1 [1,4-dimethylbenzene] + CCn1cc[n+](C)c1.N#CN=C=[N-] | 6.93 ± 0.32 |  |  | 7.05 ± 0.32 | 6.79 ± 0.31
C1COCCO1 [1,4-dioxane] + CCCCCC[N+](C)(C)C.O=S(=O)([N-]S(=O)(=O)C(F)(F)F)C(F)(F)F | 0.655 ± 0.03 | 0.661 ± 0.03 | 0.68 ± 0.03 |  | 
C1COCCO1 [1,4-dioxane] + CCn1cc[n+](C)c1.N#CN=C=[N-] | 0.89 ± 0.03 |  |  | 1.24 ± 0.04 | 1.25 ± 0.04
C#CCCCCC [1-heptyne] + CCCCCC[N+](C)(C)C.O=S(=O)([N-]S(=O)(=O)C(F)(F)F)C(F)(F)F | 3.57 ± 0.16 | 3.5 ± 0.16 | 3.54 ± 0.16 |  | 
C#CCCCCC [1-heptyne] + CCn1cc[n+](C)c1.N#CN=C=[N-] | 14.5 ± 0.67 |  |  | 14.3 ± 0.66 | 14.1 ± 0.65
C#CCCCC [1-hexyne] + CCCCCC[N+](C)(C)C.O=S(=O)([N-]S(=O)(=O)C(F)(F)F)C(F)(F)F | 2.62 ± 0.12 | 2.56 ± 0.12 | 2.58 ± 0.12 |  | 
C#CCCCC [1-hexyne] + CCn1cc[n+](C)c1.N#CN=C=[N-] | 8.7 ± 0.4 |  |  | 8.47 ± 0.39 | 8.44 ± 0.39
CCC[N+](=O)[O-] [1-nitropropane] + CCCCCC[N+](C)(C)C.O=S(=O)([N-]S(=O)(=O)C(F)(F)F)C(F)(F)F | 0.699 ± 0.03 | 0.681 ± 0.03 | 0.695 ± 0.03 |  | 
CCC[N+](=O)[O-] [1-nitropropane] + CCn1cc[n+](C)c1.N#CN=C=[N-] | 1.51 ± 0.06 |  |  | 1.5 ± 0.06 | 1.49 ± 0.06
OCC(F)(F)F [2,2,2-trifluoroethanol] + CCCCCC[N+](C)(C)C.O=S(=O)([N-]S(=O)(=O)C(F)(F)F)C(F)(F)F | 0.157 ± 0.038 | 0.402 ± 0.034 | 0.393 ± 0.034 |  | 
OCC(F)(F)F [2,2,2-trifluoroethanol] + CCn1cc[n+](C)c1.N#CN=C=[N-] | 0.1 ± 0.04 |  |  | 0.11 ± 0.04 | 0.11 ± 0.04
CC(C)CC(C)(C)C [2,2,4-trimethylpentane] + CCCCCC[N+](C)(C)C.O=S(=O)([N-]S(=O)(=O)C(F)(F)F)C(F)(F)F | 13.1 ± 0.6 | 12.1 ± 0.56 | 11.8 ± 0.54 |  | 
CC(C)CC(C)(C)C [2,2,4-trimethylpentane] + CCn1cc[n+](C)c1.N#CN=C=[N-] | 202 ± 9.5 |  |  | 180 ± 8.5 | 162 ± 7.6
CC(C)CO [2-methyl-1-propanol] + CCCCCC[N+](C)(C)C.O=S(=O)([N-]S(=O)(=O)C(F)(F)F)C(F)(F)F | 2.1 ± 0.095 | 1.71 ± 0.071 | 1.63 ± 0.066 |  | 
CC(C)CO [2-methyl-1-propanol] + CCn1cc[n+](C)c1.N#CN=C=[N-] | 1.48 ± 0.06 |  |  | 1.4 ± 0.05 | 1.33 ± 0.05
CCC(C)CC [3-methylpentane] + CCCCCC[N+](C)(C)C.O=S(=O)([N-]S(=O)(=O)C(F)(F)F)C(F)(F)F | 8.65 ± 0.4 | 8.09 ± 0.37 | 7.88 ± 0.36 |  | 
CCC(C)CC [3-methylpentane] + CCn1cc[n+](C)c1.N#CN=C=[N-] | 93.7 ± 4.4 |  |  | 87.2 ± 4.1 | 81.4 ± 3.8
CC#N [acetonitrile] + CCCCCC[N+](C)(C)C.O=S(=O)([N-]S(=O)(=O)C(F)(F)F)C(F)(F)F | 0.486 ± 0.033 | 0.46 ± 0.033 | 0.465 ± 0.033 |  | 
CC#N [acetonitrile] + CCn1cc[n+](C)c1.N#CN=C=[N-] | 0.8 ± 0.03 |  |  | 0.79 ± 0.03 | 0.79 ± 0.03
c1ccccc1 [benzene] + CCCCCC[N+](C)(C)C.O=S(=O)([N-]S(=O)(=O)C(F)(F)F)C(F)(F)F | 0.99 ± 0.025 | 0.993 ± 0.025 | 1.02 ± 0.026 |  | 
c1ccccc1 [benzene] + CCn1cc[n+](C)c1.N#CN=C=[N-] | 2.57 ± 0.12 |  |  | 2.56 ± 0.12 | 2.56 ± 0.12

SMILES | activity coefficient (322.65 K) | activity coefficient (343.85 K) | activity coefficient (352.65 K) | activity coefficient (332.85 K) | activity coefficient (343.15 K)
CCCCO [butan-1-ol] + CCCCCC[N+](C)(C)C.O=S(=O)([N-]S(=O)(=O)C(F)(F)F)C(F)(F)F | 2.25 ± 0.1 | 1.83 ± 0.079 | 1.74 ± 0.073 |  | 
CCCCO [butan-1-ol] + CCn1cc[n+](C)c1.N#CN=C=[N-] | 1.59 ± 0.06 |  |  | 1.47 ± 0.06 | 1.4 ± 0.05
CCCC=O [butanal] + CCCCCC[N+](C)(C)C.O=S(=O)([N-]S(=O)(=O)C(F)(F)F)C(F)(F)F | 0.657 ± 0.03 | 0.661 ± 0.03 | 0.677 ± 0.03 |  | 
CCCC=O [butanal] + CCn1cc[n+](C)c1.N#CN=C=[N-] | 2.23 ± 0.1 |  |  | 2.22 ± 0.1 | 2.21 ± 0.1
CCC(C)=O [butanone] + CCCCCC[N+](C)(C)C.O=S(=O)([N-]S(=O)(=O)C(F)(F)F)C(F)(F)F | 0.422 ± 0.034 | 0.365 ± 0.035 | 0.354 ± 0.035 |  | 
CCC(C)=O [butanone] + CCn1cc[n+](C)c1.N#CN=C=[N-] | 1.59 ± 0.06 |  |  | 1.46 ± 0.06 | 1.33 ± 0.05
C1CCCCCC1 [cycloheptane] + CCCCCC[N+](C)(C)C.O=S(=O)([N-]S(=O)(=O)C(F)(F)F)C(F)(F)F | 14.3 ± 0.66 | 33.3 ± 1.5 | 43.4 ± 2 |  | 
C1CCCCCC1 [cycloheptane] + CCn1cc[n+](C)c1.N#CN=C=[N-] | 128 ± 6 |  |  | 169 ± 8 | 221 ± 10
C1CCCCC1 [cyclohexane] + CCCCCC[N+](C)(C)C.O=S(=O)([N-]S(=O)(=O)C(F)(F)F)C(F)(F)F | 6.6 ± 0.3 | 5.9 ± 0.27 | 5.74 ± 0.26 |  | 
C1CCCCC1 [cyclohexane] + CCn1cc[n+](C)c1.N#CN=C=[N-] | 46 ± 2.1 |  |  | 42.1 ± 2 | 38.7 ± 1.8
CCCCCCCCCC [decane] + CCCCCC[N+](C)(C)C.O=S(=O)([N-]S(=O)(=O)C(F)(F)F)C(F)(F)F | 36.8 ± 1.7 | 31 ± 1.4 | 29.6 ± 1.4 |  | 
CCCCCCCCCC [decane] + CCn1cc[n+](C)c1.N#CN=C=[N-] | 699 ± 33 |  |  | 627 ± 30 | 565 ± 27
ClCCl [dichloromethane] + CCCCCC[N+](C)(C)C.O=S(=O)([N-]S(=O)(=O)C(F)(F)F)C(F)(F)F | 0.678 ± 0.03 | 0.728 ± 0.029 | 0.759 ± 0.029 |  | 
ClCCl [dichloromethane] + CCn1cc[n+](C)c1.N#CN=C=[N-] | 0.67 ± 0.03 |  |  | 0.73 ± 0.03 | 0.78 ± 0.03
CCOCC [diethyl ether] + CCCCCC[N+](C)(C)C.O=S(=O)([N-]S(=O)(=O)C(F)(F)F)C(F)(F)F | 1.52 ± 0.059 | 1.91 ± 0.084 | 1.94 ± 0.086 |  | 
CCOCC [diethyl ether] + CCn1cc[n+](C)c1.N#CN=C=[N-] | 9.88 ± 0.45 |  |  | 9.71 ± 0.45 | 9.56 ± 0.44
CC(C)OC(C)C [diisopropyl ether] + CCCCCC[N+](C)(C)C.O=S(=O)([N-]S(=O)(=O)C(F)(F)F)C(F)(F)F | 3.2 ± 0.15 | 4.03 ± 0.18 | 4.12 ± 0.19 |  | 
CC(C)OC(C)C [diisopropyl ether] + CCn1cc[n+](C)c1.N#CN=C=[N-] | 32.1 ± 1.5 |  |  | 32.3 ± 1.5 | 32.4 ± 1.5
CCCCCCCCCCCC [dodecane] + CCCCCC[N+](C)(C)C.O=S(=O)([N-]S(=O)(=O)C(F)(F)F)C(F)(F)F | 68.1 ± 3.2 | 55.8 ± 2.6 | 52.9 ± 2.5 |  | 
CCCCCCCCCCCC [dodecane] + CCn1cc[n+](C)c1.N#CN=C=[N-] | 1410 ± 68 |  |  | 1290 ± 62 | 1180 ± 57
CCO [ethanol] + CCCCCC[N+](C)(C)C.O=S(=O)([N-]S(=O)(=O)C(F)(F)F)C(F)(F)F | 2.41 ± 0.11 | 1.28 ± 0.043 | 1.21 ± 0.039 |  | 
CCO [ethanol] + CCn1cc[n+](C)c1.N#CN=C=[N-] | 0.78 ± 0.03 |  |  | 0.74 ± 0.03 | 0.75 ± 0.03
CCOC(C)=O [ethyl acetate] + CCCCCC[N+](C)(C)C.O=S(=O)([N-]S(=O)(=O)C(F)(F)F)C(F)(F)F | 0.72 ± 0.029 | 0.748 ± 0.029 | 0.776 ± 0.028 |  | 
CCc1ccccc1 [ethylbenzene] + CCCCCC[N+](C)(C)C.O=S(=O)([N-]S(=O)(=O)C(F)(F)F)C(F)(F)F | 1.83 ± 0.079 | 1.91 ± 0.084 | 1.97 ± 0.088 |  | 
CCc1ccccc1 [ethylbenzene] + CCn1cc[n+](C)c1.N#CN=C=[N-] | 7.43 ± 0.34 |  |  | 7.38 ± 0.34 | 7.29 ± 0.33
